In assay [1] the test system is Peripheral blood mononuclear cells (PBMC). The assay is described as follows: cells. Conditions: Homo sapiens.
Assay [2] has the same test system. Conditions: Table 19, R x S; R6-5-D6 8 ng/ml, Azathioprine 1 ng/ml; no inhibitor 49,570.
In a further assay the test system is JY cells. The assay is described as follows: LFA-1 dependent aggregation of JY cells (qualitative and quantitative aggregation assays). It is filed as cell-based. Conditions: 50 ng/ml of PMA; quantitative assay, 200 rpm, 2 hours; SD = 8%, N = 6. On the procedure:
In order to assess the extent of cellular adhesion, aggregation assays were employed. Cell lines used in such assays were washed two times with RPMI 1640 medium containing 5 mM Hepes buffer (Sigma Chemical Co., St. Louis) and resuspended to a concentration of 2 x 10⁶ cells/ml. Added to flat-bottomed, 96-well microtiter plates (No. 3596; Costar, Cambridge, MA) were 50 »l of appropriate monoclonal antibody supernatant or 50 »l of complete medium with or without purified monoclonal antibodies, 50 »l of complete medium containing 200 ng/ml of the phorbol ester phorbol myristate acetate (PMA) and 100 »l of cells at a concentration of 2 x 10⁶ cells/ml in complete medium. This yielded a final concentration of 50 ng/ml PMA and 2 x 10⁵ cells/well. Cells were allowed to settle spontaneously, and the degree of aggregation was scored at various time points. […] In order to obtain a more quantitative estimate of cellular adhesion, reagents and cells were added to 5 ml polystyrene tubes in the same order as above. Tubes were placed in a rack on a gyratory shaker at 37°C. […] Percent aggregation was determined by the following equation: [formula] […]
As a second means of measuring adhesion, the quantitative assay described in Example 2 was used. […]

The subject of another assay is human dermal fibroblasts. In kind it is cell-based. As for the experimental part: The kinetics of interleukin 1 and gamma interferon effects on ICAM-1 expression on dermal fibroblasts were determined using the ¹²⁵I goat anti-mouse IgG binding assay of Dustin, M.L. et al. (J. Immunol. 137:245-254 (1986); which reference is herein incorporated by reference). To perform this binding assay, human dermal fibroblasts were grown in a 96-well microtiter plate to a density of 2-8 x 10⁴ cells/well (0.32 cm²). The cells were washed twice with RPMI 1640 medium supplemented as described in Example 1. The cells were additionally washed once with Hanks Balanced Salt Solution (HBSS), 10 mM HEPES, 0.05% NaN₃ and 10% heat-inactivated fetal bovine serum. Washing with this binding buffer was done at 4°C. To each well was added 50 »l of the above-described binding buffer and 50 »l of the appropriate hybridoma supernatant with X63 and W6/32 as the negative and positive controls, respectively. After incubation for 30 minutes at 4°C, with gentle agitation, the wells were washed twice with binding buffer, and the second antibody ¹²⁵I-goat anti-mouse IgG, was added at 50 nCi in 100 »l. The ¹²⁵I-goat anti-mouse antibody was prepared by using Iodogen (Pierce) according to the method of Fraker, P.J. et al. (Biochem. Biophys. Res. Commun. 80:849 (1978)). After 30 minutes at 4°C, the wells were washed twice with 200 »l of binding buffer and the cell layer was solubilized by adding 100 »l of 0.1 N NaOH. This and a 100 »l wash were counted in a Beckman 5500 gamma counter. The specific counts per minute bound was calculated as [cpm with monoclonal antibody]-[cpm with X63]. All steps, including induction with specific reagents, were carried out in quadruplicate.

The target in another assay is ICAM-1-LFA-1 adhesion (Homo sapiens, UniProt P05107+P20701). Conditions: Marlin, S.D., et al., cell 51:813-819 (1987); cited from earlier work.
Assay [3] deals with human umbilical vein endothelial cells (HUVEC). The assay is described as follows: Radioimmune assay of ICAM-1 expression (¹²⁵I RR1/1 binding) on HUVEC. In kind it is cell-based. On the procedure:
In order to measure ICAM-1 expression, a radioimmune assay was developed. In this assay, purified RR1/1 was iodinated using iodogen to a specific activity of 10 »Ci/»g. Endothelial cells were grown in 96 well plates and treated as described for each experiment. The plates were cooled at 4°C by placing in a cold room for 0.5-1 hr, not immediately on ice. The monolayers were washed 3x with cold complete media and then incubated 30 m at 4°C with ¹²⁵I RR1/1. The monolayers were then washed 3x with complete media. The bound ¹²⁵I was released using 0.1 N NaOH and counted. The specific activity of the ¹²⁵I RR1/1 was adjusted using unlabeled RR1/1 to obtain a linear signal over the range of antigen densities encountered in this study. Non-specific binding was determined in the presence of a thousand fold excess of unlabeled RR1/1 and was subtracted from total binding to yield the specific binding.

[4] abbreviates: IFN-γ (10 U/ml) (18 hr), alone or + cycloheximide 20 »g/ml, actinomycin D 10 »M, mean ± SD.
Setting [5] is: IL 1 (10 U/ml) (4 hr), alone or + cycloheximide 20 »g/ml, actinomycin D 10 »M, tunicamycin 2 »g/ml, mean ± SD.
Setting [6] is: no cytokine, Control (4 hr) 1524 ± 140, cycloheximide 20 »g/ml, actinomycin D 10 »M, tunicamycin 2 »g/ml, mean ± SD.
Setting [7] is: no cytokine, Control (4 hr) 11928 ± 600, cycloheximide 20 »g/ml, actinomycin D 10 »M, tunicamycin 2 »g/ml, mean ± SD.

This is an account of results in patent EP0365837B1 (DANA FARBER CANCER INSTITUTE, priority 1988, dated 1990).

Where “and” joins values, the source holds several entries; their conditions need not be identical. Equal entries are not always repeated. Where two headings read alike, the source gives them in different places. *1 amine or outer side, *2 acyl side, *3 side chain or, on linkers, in order; H or OH if unused. Where a SMILES comes first, the peptide text is derived from it. Bridges are numbered along the chain shown (N, C = ends). Roman numbers before positions name the chains, in order. [ ]: non-standard residue; d: D form. Actinocin(9to1) = Cc1c2oc3c(C)ccc(C(=O)[*:1])c3nc-2c(C(=O)[*:2])c(N)c1=O; NMeV = CN[C@H](C(=O)O)C(C)C; Sar = CNCC(=O)O

Sequence of ICAM-1-LFA-1 adhesion (P20701 26-1170): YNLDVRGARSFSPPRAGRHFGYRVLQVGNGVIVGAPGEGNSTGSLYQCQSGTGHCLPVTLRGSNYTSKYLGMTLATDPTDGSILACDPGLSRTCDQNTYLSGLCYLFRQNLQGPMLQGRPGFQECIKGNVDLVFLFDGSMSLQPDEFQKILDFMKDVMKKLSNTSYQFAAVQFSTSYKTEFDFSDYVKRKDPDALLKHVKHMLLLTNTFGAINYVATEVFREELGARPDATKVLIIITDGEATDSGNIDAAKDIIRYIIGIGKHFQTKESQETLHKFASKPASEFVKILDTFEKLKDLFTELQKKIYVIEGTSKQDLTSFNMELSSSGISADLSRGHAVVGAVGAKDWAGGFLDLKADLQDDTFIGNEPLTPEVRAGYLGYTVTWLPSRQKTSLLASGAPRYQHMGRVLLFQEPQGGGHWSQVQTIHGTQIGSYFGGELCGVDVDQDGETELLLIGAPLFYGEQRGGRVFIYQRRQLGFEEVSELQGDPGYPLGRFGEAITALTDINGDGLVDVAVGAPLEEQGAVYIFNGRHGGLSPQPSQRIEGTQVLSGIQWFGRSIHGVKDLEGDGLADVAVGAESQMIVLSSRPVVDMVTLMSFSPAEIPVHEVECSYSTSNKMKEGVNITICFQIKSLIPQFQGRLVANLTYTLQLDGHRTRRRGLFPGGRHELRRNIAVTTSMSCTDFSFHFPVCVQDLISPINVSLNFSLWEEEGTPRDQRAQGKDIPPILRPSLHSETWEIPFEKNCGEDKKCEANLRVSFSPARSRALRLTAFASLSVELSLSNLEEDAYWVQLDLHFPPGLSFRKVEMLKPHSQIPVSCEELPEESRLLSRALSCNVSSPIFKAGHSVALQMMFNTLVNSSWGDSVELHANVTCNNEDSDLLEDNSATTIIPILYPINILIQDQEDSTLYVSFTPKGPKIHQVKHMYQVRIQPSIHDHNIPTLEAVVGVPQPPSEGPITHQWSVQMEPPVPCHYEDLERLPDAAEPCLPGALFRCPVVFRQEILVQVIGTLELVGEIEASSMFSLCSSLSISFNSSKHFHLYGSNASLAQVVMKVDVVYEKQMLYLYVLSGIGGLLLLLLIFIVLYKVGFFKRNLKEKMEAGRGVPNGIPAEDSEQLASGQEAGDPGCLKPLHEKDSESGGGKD
Sequence of ICAM-1-LFA-1 adhesion (P05107 23-769): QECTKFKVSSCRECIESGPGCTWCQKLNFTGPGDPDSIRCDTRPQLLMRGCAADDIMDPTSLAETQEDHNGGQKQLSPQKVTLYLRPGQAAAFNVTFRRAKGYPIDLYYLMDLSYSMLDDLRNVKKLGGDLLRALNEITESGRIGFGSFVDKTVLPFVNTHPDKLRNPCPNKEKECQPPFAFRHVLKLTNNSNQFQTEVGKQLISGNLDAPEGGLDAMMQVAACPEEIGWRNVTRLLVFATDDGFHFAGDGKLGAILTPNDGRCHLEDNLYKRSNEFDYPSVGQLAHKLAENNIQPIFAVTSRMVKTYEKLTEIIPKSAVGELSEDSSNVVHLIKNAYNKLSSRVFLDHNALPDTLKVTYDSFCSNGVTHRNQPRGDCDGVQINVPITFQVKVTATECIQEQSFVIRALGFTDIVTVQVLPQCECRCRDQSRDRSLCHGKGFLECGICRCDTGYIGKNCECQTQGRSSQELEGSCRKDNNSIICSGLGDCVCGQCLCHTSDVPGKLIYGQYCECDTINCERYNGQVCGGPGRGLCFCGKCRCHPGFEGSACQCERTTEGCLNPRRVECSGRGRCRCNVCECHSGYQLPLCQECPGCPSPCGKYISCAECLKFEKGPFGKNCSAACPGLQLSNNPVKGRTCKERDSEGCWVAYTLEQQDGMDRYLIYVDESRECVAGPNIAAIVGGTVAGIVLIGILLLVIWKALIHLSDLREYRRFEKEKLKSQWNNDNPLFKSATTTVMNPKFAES

`Cn1cnc([N+](=O)[O-])c1Sc1ncnc2nc[nH]c12` [Azathioprine] came in with an inhibition at 0.001 µg/mL in assay [1] of 14%. In addition, in assay [2], the “³HT Incorporation (CPM)” value is reported as 42,710 CPM.
Consider `CCCCCCCCCCCCCC(=O)O[C@@H]1[C@@H](C)[C@@]2(O)[C@@H](C=C(CO)C[C@]3(O)C(=O)C(C)=C[C@@H]23)[C@@H]2C(C)(C)[C@]12OC(C)=O` [PMA, phorbol myristate acetate], for which the “JY cells in aggregates” value in the assay with JY cells turned out to be 87%.
For the compound `Cc1c2oc3c(C)ccc(C(=O)N[C@@H]4C(=O)N[C@H](C(C)C)C(=O)N5CCC[C@H]5C(=O)N(C)CC(=O)N(C)[C@@H](C(C)C)C(=O)O[C@@H]4C)c3nc-2c(C(=O)N[C@@H]2C(=O)N[C@H](C(C)C)C(=O)N3CCC[C@H]3C(=O)N(C)CC(=O)N(C)[C@@H](C(C)C)C(=O)O[C@@H]2C)c(N)c1=O` [actinomycin D] (I: T[dV]P[Sar][NMeV] / II: T[dV]P[Sar][NMeV]; ester I:1-I:C, II:1-II:C; linker I:N-II:N via Actinocin(9to1)), the “¹²⁵I Goat Anti-Mouse IgG Specifically Bound (cpm) anti-HLA-A,B,C” value came out at 12089 ± 550 cpm in the assay on human dermal fibroblasts (setting [4]), 12294 ± 123 cpm in the assay on human dermal fibroblasts (setting [5]) and 12276 ± 608 cpm in the assay with human dermal fibroblasts (setting [7]). The “¹²⁵I Goat Anti-Mouse IgG Specifically Bound (cpm) anti-ICAM-1” value in the assay with human dermal fibroblasts (setting [4]) is 1326 ± 186 cpm; in the assay with human dermal fibroblasts (setting [5]) it was 1613 ± 88 cpm; in the assay with human dermal fibroblasts (setting [6]) it was 1590 ± 46 cpm. Moreover, the “effects of both interleukin 1 and gamma interferon on ICAM-1 expression on fibroblasts” value in the assay on human dermal fibroblasts (cycloheximide 20 »g/ml, actinomycin D 10 »M) is on record as “abolish”.
Turning to `C[C@@H]1C[C@@H]([C@H](O)CC2CC(=O)NC(=O)C2)C(=O)[C@@H](C)C1` [cycloheximide], in the assay on human dermal fibroblasts, the “¹²⁵I Goat Anti-Mouse IgG Specifically Bound (cpm) anti-HLA-A,B,C” value was 10675 ± 800 cpm and 10678 ± 471 cpm and 12676 ± 446 cpm; the “¹²⁵I Goat Anti-Mouse IgG Specifically Bound (cpm) anti-ICAM-1” value was 1461 ± 59 cpm and 1513 ± 210 cpm and 1619 ± 381 cpm.
For the compound GRGDSP, the “inhibit ICAM-1-LFA-1 adhesion” value at ICAM-1-LFA-1 adhesion is “failure”.
With GRGESP, the “inhibit ICAM-1-LFA-1 adhesion” value on ICAM-1-LFA-1 adhesion is “failure”.
For the compound polymyxin B, in assay [3] (HUVEC, 16 hr, 100 ng/ml rIL-1 beta, 50 ng/ml rIL-1 alpha, 50 ng/ml rTNF alpha, 10 »g/ml LPS, 10 ng/ml rIFN gamma, polymyxin B 10 »g/ml, control 603 ± 11), the “¹²⁵I Specifically bound (CPM)” value is listed as 480 ± 23 CPM. The “decreased ICAM-1 expression (basal)” value in assay [3] (polymyxin B at 10 »g/ml, cells in low endotoxin serum, additional decrease) was 25%.
Turning to tunicamycin, the “¹²⁵I Goat Anti-Mouse IgG Specifically Bound (cpm) anti-HLA-A,B,C” value with human dermal fibroblasts (setting [5]) was 13434 ± 661 cpm; in the assay on human dermal fibroblasts (setting [7]), 12340 ± 940 cpm. Besides, the “¹²⁵I Goat Anti-Mouse IgG Specifically Bound (cpm) anti-ICAM-1” value in the assay with human dermal fibroblasts (setting [5]) stood at 3084 ± 113 cpm; with human dermal fibroblasts (setting [6]), 1461 ± 176 cpm. Besides, the “inhibited the interleukin 1 effect on ICAM-1 expression” value with human dermal fibroblasts (fibroblasts, tunicamycin 2 »g/ml) amounted to 43%.
